The target in test [1] is T1, PPH-5 (Caenorhabditis elegans, UniProt Q9NES8).
T1 construct: made in house
T1 sequence (Q9NES8 1-496): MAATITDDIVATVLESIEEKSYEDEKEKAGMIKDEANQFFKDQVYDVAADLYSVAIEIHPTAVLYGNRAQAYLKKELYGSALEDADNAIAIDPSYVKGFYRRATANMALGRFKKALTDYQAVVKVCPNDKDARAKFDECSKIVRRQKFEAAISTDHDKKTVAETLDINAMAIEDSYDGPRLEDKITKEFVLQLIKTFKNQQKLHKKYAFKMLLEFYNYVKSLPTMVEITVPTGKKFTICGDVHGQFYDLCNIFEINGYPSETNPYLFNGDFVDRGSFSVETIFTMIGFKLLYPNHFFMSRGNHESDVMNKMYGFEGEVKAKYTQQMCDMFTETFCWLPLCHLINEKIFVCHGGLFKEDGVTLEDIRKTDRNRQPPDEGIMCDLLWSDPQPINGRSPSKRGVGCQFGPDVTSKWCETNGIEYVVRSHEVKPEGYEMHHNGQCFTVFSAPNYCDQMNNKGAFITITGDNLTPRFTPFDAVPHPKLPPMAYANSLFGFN
The experiment in a line: Relaxation-edited NMR binding to PPH-5. The following applies: 10 μM PPH-5, phosphate buffer, 20°C, no substrate. On the set-up: species or system C. elegans. How it is done: NMR experiments were performed on an 800 MHz spectrometer (Bruker) with cryoprobe. The measurements were done in ^2H2O with phosphate buffer (4 mM KH2PO4, 16 mM Na2HPO4, 120 mM NaCl, pH 7.4) and 1%–5% of d6-DMSO. P5SA-2 without protein was recorded in high sensitivity experiments with a high number of scans. The CPMG sequence with an additional Watergate to suppress residual water was used. The T2 filtering time was set to 400 ms to suppress signals from slowly tumbling molecules. Peak intensities were normalized by comparing residual DMSO peaks. PPH-5 was added as indicated.

Test [2] has as its target T1, PPH-5. In words: pNPP phosphatase assay with nematode PPH-5. It is filed as biochemical, C. elegans. The settings on record: for kcat / fold activation: PPH-5 (C. elegans); for kcat: 60 mM pNPP, in presence of compound; for fold activation: based on kcat compared with PPH-5 basal activity; for activation of PPH-5 phosphatase activity: substances at 50 ng/ml, DMSO control. The method, then: The compound library consisting of 10000 compounds (New Chemistry and Discovery Chemistry Collection, ChemDiv) was screened using a chromometric phosphatase assay with para-nitrophenyl phosphate (pNPP) as substrate. Phosphatase activity was determined by the conversion of pNPP to para-nitrophenole and absorption of the product at 410 nm (ε: 15100 cm^−1 M^−1). Assays were performed in 96-well plates in a PerkinElmer EnVision instrument with 50 nM of PPH-5. Reaction volume was 100 μl in a buffer of 40 mM HEPES, pH 7.5, 20 mM KCl, 5 mM MnCl2 and 1 mM DTT. The reaction was started by adding pNPP to a final concentration of 60 mM. The slope of the reaction was determined and deviations of >30% were considered potential hits leading to a collection of 76 initial compounds. […] These 76 compounds were maintained and rescreened individually in a Varian Cary 100 spectrophotometer (Agilent Technologies) in Hellma SUPRASIL precision quarz cells (10-mm path length) and 140 μl of reaction volumes. Finally, five compounds were obtained as reproducible activators and selected for further characterization.
Phosphatase assays for characterization of PP5 and PPH-5 properties were performed in 40 mM HEPES/KOH, 20 mM KCl, 5 mM MnCl2, 1 mM DTT, pH 7.5 and 60 mM pNPP at 20°C if not indicated otherwise. Phosphatase concentrations ranged from 50 to 500 nM in the assay. If indicated, the CeHsp90/DAF-21 peptide AEEDASRMEEVD was supplemented in the assay at a concentration of 60 μM. […] These concentrations were 70 μM for P5SA-1, 140 μM for P5SA-2, 50 μM for P5SA-3, 100 μM for P5SA-4 and 45 μM for P5SA-5.

Two compounds from paper PMC4721540, “Selective activators of protein phosphatase 5 target the auto-inhibitory mechanism” (Bioscience Reports, 2015) can be followed below.

For orientation: kcat means the maximal rate divided by the concentration of active sites.

SMILES strings stand for the structures.

`COc1ccc(-c2nc(Cc3ccc(Cl)cc3)no2)cc1OC` [P5SA-2]: the “direct binding to PPH-5 by NMR” value in test [1] is given as “confirms binding of P5SA-2 to PPH-5”. Besides, in test [2], the kcat stood at 1.99 ± 0.43 s⁻¹, the fold activation came out at 3.2 and the “activation of PPH-5 phosphatase activity” value is on record as “activate PPH-5”.

As to `CNC(=O)c1c(NC(=O)COCC(=O)Nc2sc3c(c2C(=O)NC)CCC3)sc2c1CCC2` [P5SA-5], in test [2], the kcat worked out at 5.22 ± 0.67 s⁻¹, the fold activation amounted to 8.4 and the “activation of PPH-5 phosphatase activity” value is recorded as “activate PPH-5”. In addition, the “influence of MEEVD-containing peptide on apparent affinity of activator” value in test [2] (PPH-5, 60 μM MEEVD-containing peptide) is “only a minor influence on the apparent affinity”.
